“Also recorded” adds a separate entry of the source. Marks after values point to notes of the source that are not given here.
Experiments:
[1] = Chow consumption / energy intake of mice fed LFD or HFD with or without CDDO-EA; assay type: in vivo, C57B16/J mice
Description: To assess the protective effects of CDDO-EA from obesity and insulin resistance, C57B16/J mice (6-8 weeks old, male, strain #000664, The Jackson Laboratory) were used. The animals were fed a Low Fat diet (LFD) (10% total calories from fat, […]) or a High Fat diet (HFD) (60% of total calories from fat) incorporated with or without CDDO-EA (chow containing 0.04% CDDO-EA) for six weeks.
Energy intake was also measured. Energy intake is determined as a measure of the amount of food consumed by a subject (such as a subject mouse). […] Thus CDDO-EA protects from development of HFD-induced obesity in vivo.
The mice were maintained on one of the 4 food regiment schedules as defined in Example 2. The amount of food consumed by an animal was monitored weekly.

[2] = Body weight of mice fed LFD or HFD with or without CDDO-EA in the chow for 6 weeks; assay type: in vivo, C57B16/J mice
Description: To assess the protective effects of CDDO-EA from obesity and insulin resistance, C57B16/J mice (6-8 weeks old, male, strain #000664, The Jackson Laboratory) were used. The animals were fed a Low Fat diet (LFD) (10% total calories from fat, […]) or a High Fat diet (HFD) (60% of total calories from fat) incorporated with or without CDDO-EA (chow containing 0.04% CDDO-EA) for six weeks. Feeding groups: The mice were put into one of four groups: • (i) HFD (60% total calories from fat), • (ii) HFD+0.04% CDDO-EA, • (iii) LFD (10% total calories from fat), • (iv) LFD+0.04% CDDO-EA. Unlike Shin et al. and Camer et al., where the CDDO was administered via gavage or in the drinking water, the present studies provide for a feed material (veterinary chow mix) formulated to include 400 mg CDDO-EA in 1 kilogram of veterinary chow, which is 0.04% CDDO-EA in 1 kilogram of veterinary chow. […] This is because the amount of chow without CDDO-EA (LFD) consumed by the animals was approximately the same amount of chow with CDDO-EA consumed by the animals (LFD+CDDO-EA) (See Table 3). Data were statistically analyzed by One-Way ANOVA, Two-Way ANOVA with repeated measures, or Two-Way ANOVA with Tukey's multiple comparison test. Throughout the collection of blood samples, OGTTs, and measurement of bodyweight, mice were unrestrained and awake. Blood samples were collected via tail snip before start of experimental feeding and then every two weeks. Oral glucose tolerance tests (OGTTs) were performed after the six-week experimental feeding, and blood samples were collected via tail snip during the OGTT. For OGTT, mice were given 2 g of glucose/kg of body weight by gavage after a five hour fast (36). Glucose levels were measured using a glucometer (Contour), and insulin concentrations were measured using an ELISA (Mercodia). Mice were weighed once a week. Glucose and insulin serum levels were measured every two weeks.

[3] = OGTT and fasting glucose at week 6 with pair-fed group; assay type: in vivo, C57BL/6J mice
Description: FIG. 25—OGTT Area Under the Curve. Oral GTT performed at week 6 of experimental feeding, and mice were dosed on lean mass (2 g/kg lean mass). C57BL/6J mice were fed a HFD with or without incorporation of CDDO-EA (diet containing 0.04% CDDO-EA) or LFD or HFD pair-fed for 6 weeks (n=5). Data are represented as mean±SEM (One-way ANOVA).
Fasting glucose levels were measured at day 42 of experimental feeding. C57BL/6J mice were fed a HFD with or without incorporation of CDDO-EA (diet containing 0.04% CDDO-EA) or a LFD or were HFD pair-fed for 6 weeks (n=5). Data are represented as mean±SEM (One-way ANOVA).
To determine the answer to this question, a pair-fed/weight-matched group was included in the study. OGTT was performed at end of the 6-week study.

CCNC(=O)[C@]12CCC(C)(C)C[C@H]1C1C(=O)C=C3[C@@]4(C)C=C(C#N)C(=O)C(C)(C)[C@@H]4CC[C@@]3(C)[C@]1(C)CC2 (stereo partly drawn) [CDDO-EA, (4aS,6aR,6bS,8aR,12aS,14bS)-11-cyano-N-ethyl-2,2,6a,6b,9,9,12a-heptamethyl-10,14-dioxo-1,3,4,5,6,6a,6b, 7,8,8a,9,10,12a, 14,14a, 14b-hexadecahydropicene-4a (2H)-carboxamide]
Grams of Chow per Week Consumed by Animals ([1]; HFD + CDDO-EA (0.04%), week 1): 18.0 ± 0.9 Grams of Chow per Week
Grams of Chow per Week Consumed by Animals ([1]; HFD + CDDO-EA (0.04%), week 2): 18.4 ± 1.0 Grams of Chow per Week
Grams of Chow per Week Consumed by Animals ([1]; HFD + CDDO-EA (0.04%), week 3): 16.8 ± 0.5 Grams of Chow per Week
Grams of Chow per Week Consumed by Animals ([1]; HFD + CDDO-EA (0.04%), week 4): 15.8 ± 0.4* * Grams of Chow per Week
Grams of Chow per Week Consumed by Animals ([1]; HFD + CDDO-EA (0.04%), week 5): 16.2 ± 0.5 Grams of Chow per Week
Grams of Chow per Week Consumed by Animals ([1]; HFD + CDDO-EA (0.04%), week 6): 16.6 ± 0.4 Grams of Chow per Week
energy intake (caloric food consumption) ([1]; HFD chow mixed with CDDO-EA): decreased energy intake; also recorded: inhibits energy intake
average weekly chow consumption ([1]; HFD+CDDO-EA group, all six weeks): 17 g
Grams of Chow per Week Consumed by Animals ([1]; LFD + CDDO-EA (0.04%), week 1): 19.2 ± 0.6 Grams of Chow per Week
Grams of Chow per Week Consumed by Animals ([1]; LFD + CDDO-EA (0.04%), week 2): 21.5 ± 0.6 Grams of Chow per Week
Grams of Chow per Week Consumed by Animals ([1]; LFD + CDDO-EA (0.04%), week 3): 21.1 ± 0.7 Grams of Chow per Week
Grams of Chow per Week Consumed by Animals ([1]; LFD + CDDO-EA (0.04%), week 4): 20.0 ± 0.2 Grams of Chow per Week
Grams of Chow per Week Consumed by Animals ([1]; LFD + CDDO-EA (0.04%), week 5): 21.3 ± 0.3 Grams of Chow per Week
Grams of Chow per Week Consumed by Animals ([1]; LFD + CDDO-EA (0.04%), week 6): 19.8 ± 0.4 Grams of Chow per Week
more food consumed by HFD-fed animals than by HFD plus CDDO-EA-fed animals ([1]; week 3): 20%
more food consumed by HFD-alone animals than by HFD + CDDO-EA animals ([1]; week one): at least 10%
difference in weight between mice fed a high fat diet and mice fed a high fat diet incorporated with CDDO-EA ([2]; 0.04% CDDO-EA, 6 weeks): 66.8%
Average Weight (g) of Mice ([2]; HFD + CDDO-EA (0.04%), week 1): 23.4 ± 0.5 g
Average Weight (g) of Mice ([2]; HFD + CDDO-EA (0.04%), week 2): 23.2 ± 0.5 g
Average Weight (g) of Mice ([2]; HFD + CDDO-EA (0.04%), week 3): 24.6 ± 0.5 g
Average Weight (g) of Mice ([2]; HFD + CDDO-EA (0.04%), week 4): 24.1 ± 0.5 g
Average Weight (g) of Mice ([2]; HFD + CDDO-EA (0.04%), week 5): 25.4 ± 0.5 g
Average Weight (g) of Mice ([2]; HFD + CDDO-EA (0.04%), week 6): 25.3 ± 0.5 g
body weight gain / obesity ([2]; HFD + CDDO-EA (400 mg/kg diet, 0.04%), 6 weeks): did not have a significant increase in body weight; also recorded: significantly blocked gain weight; also recorded: prevented the excess weight gain; also recorded: inhibits weight gain and obesity in vivo; also recorded: did not evidence a significant weight gain; also recorded: prevents obesity
Average Weight (g) of Mice ([2]; HFD + CDDO-EA (diet containing 0.04% CDDO-EA), week 0): 23.8 ± 0.5 g
significant weight gain prevented ([2]; HFD incorporated with 0.04% CDDO-EA): 66.8%
Average Weight (g) of Mice ([2]; LFD + CDDO-EA (0.04%), week 1): 24.4 ± 0.9 g
Average Weight (g) of Mice ([2]; LFD + CDDO-EA (0.04%), week 2): 24.4 ± 0.8 g
Average Weight (g) of Mice ([2]; LFD + CDDO-EA (0.04%), week 3): 25.8 ± 0.7 g
Average Weight (g) of Mice ([2]; LFD + CDDO-EA (0.04%), week 4): 25.4 ± 0.7 g
Average Weight (g) of Mice ([2]; LFD + CDDO-EA (0.04%), week 5): 26.4 ± 0.6 g
Average Weight (g) of Mice ([2]; LFD + CDDO-EA (0.04%), week 6): 26.0 ± 0.4 g
Average Weight (g) of Mice ([2]; LFD + CDDO-EA (diet containing 0.04% CDDO-EA), week 0): 25.5 ± 1.0 g
fasting glucose ([3]; day 42, HFD+CDDO-EA compared to HFD ad lib): significant lowered fasting glucose levels; also recorded: lowers fasting glucose levels
fasting glucose ([3]; day 42, HFD+CDDO-EA compared to HFD pair-fed): close to significant effect on fasting glucose
glucose tolerance (OGTT Area Under the Curve) ([3]; week 6, HFD+CDDO-EA compared to HFD ad lib): significant improvement in glucose tolerance
glucose tolerance (OGTT Area Under the Curve) ([3]; week 6, HFD+CDDO-EA compared to HFD pair-fed): slight improvement in glucose tolerance

Reference: patent US20260207626A1, “SYNTHETIC TRITERPENOIDS AND COMPOSITIONS THEREOF IN WEIGHT MANAGEMENT, SKELETAL MUSCLE FUNCTION, AND APPETITE SUPPRESSION” (The Board of Regents of the University of Texas System, priority 2022, published 2026)
